Where two headings read alike, the source gives them in different places.
Assays:
Assay type in all cases: biochemical
rat nNOS = target: T1, rat nNOS (Rattus norvegicus, UniProt P29476); assay: NOS enzyme inhibitory assay (hemoglobin capture), nNOS; details: for IC50: rat nNOS, 10 μM L-arginine
T1 construct: made in house; host or cells: E. coli (plasmid pCWnNOS)
Summary of the method: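 Recombinant rat nNOS expressed in E. coli and purified by calmodulin-Sepharose and 2′,5′-ADP-Sepharose chromatography. NO production followed by hemoglobin capture; inhibition expressed as Ki, selectivity as ratio of Ki values.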

murine iNOS = target: T2, murine iNOS (Mus musculus, UniProt P29477); assay: NOS enzyme inhibitory assay (hemoglobin capture), iNOS; details: for IC50: murine iNOS, 10 μM L-arginine
T2 construct: made in house; host or cells: E. coli (plasmid pCWiNOS)
Summary of the method: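 Recombinant murine iNOS, overexpressed in E. coli from plasmid pCWiNOS (induced with 1 mM IPTG) and purified on a 2′,5′-ADP-Sepharose 4B column with elution by 10 mM 2′(3′)-AMP, 10 μM BH4 and 0.3 M NaCl, was used to test inhibitors. Nitric oxide production was followed with the hemoglobin capture assay, and IC50 values were determined.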

bovine eNOS = target: T3, bovine eNOS (Bos taurus, UniProt P29473); assay: NOS enzyme inhibitory assay (hemoglobin capture), eNOS; details: for IC50: bovine eNOS, 10 μM L-arginine, * = no inhibition observed up to the concentration listed
T3 construct: made in house; host or cells: E. coli (plasmid Bov-eNOSpCW)
Procedure: All of the NOS isoforms used were recombinant enzymes overexpressed in E. coli from different sources. Nitric oxide formation from NOS was monitored by the hemoglobin capture assay as described in the literature.
Expression of bovine eNOS: An overnight culture of Bov-eNOSpCW was used to inoculate 0.5 liter (in a 2.8-liter Fernbach flask) of modified TB (20 g of yeast extract, 10 g of bacto-tryptone, 2.65 g of KH2PO4, 4.33 g of Na2HPO4 and 4 ml of glycerol per liter) containing ampicillin ([…]) and chloramphenicol ([…]). The cultures were grown to an OD600 of z0.8 at 22° C. (200 rpm) and induced with 0.5 mM IPTG. One hour before IPTG induction, d-aminolevulinic acid (0.5 mM final) was added and, at the time of IPTG induction, riboflavin ([…]) and ATP (1 mM final) were also added. After induction, the flasks were kept in the dark at 22° C. (200 rpm). The cells were harvested 48 h after induction, and the cell pellet was frozen at −80° C. until purification was carried out.
Purification of bovine eNOS. The purification was typically carried out with eNOS from 2 liters of E. coli culture. The eNOS protein was purified using a modification of the published protocol for nNOS (14). The cells were resuspended in buffer C [50 mM Tris-Cl, pH 7.8, 1 mM EDTA, 1 mM DTT, 10% glycerol (v/v), 150 mM NaCl, 0.1 mM phenylmethylsulfonyl fluoride, […]], lysed by pulsed sonication and then centrifuged to sediment the cell debris. The supernatant was applied to a 2′,5′-ADP Sepharose 4B column equilibrated in buffer D [50 mM Tris-Cl, pH 7.8, 0.1 mM EDTA, 0.1 mM dithiothreitol, 150 mM NaCl, 10% glycerol (v/v)]. The column was washed with 20 column volumes of buffer B and again with 20 column volumes of buffer B containing 600 mM NaCl. Finally, protein was eluted with buffer B containing 600 mM NaCl and 5 mM 2′-AMP. The fractions were screened for absorption in the Soret region (A400) and hemoprotein-containing fractions were pooled and concentrated (Centriprep 50, Amicon). Repeated dilution/concentration [50 mM Tris-Cl, pH 7.8, 0.1 mM EDTA, 0.1 mM dithiothreitol, 10% glycerol (vol/vol)] was used to reach a final concentration of 150 mM NaCl and commensurately reduce the 2′-AMP content. […] The purified eNOS is stored in the presence of 1 mM L-arginine.
eNOS washing: eNOS contains a significant amount of L-arginine, which will interfere with the enzyme assay. The L-arginine can be removed by several dilution and concentration steps using an Amico concentrator. The dilution buffer is 10 ml Tris-HCl 50 mM containing 0.1 mM EDTA, 400 mM NaCl, 10% glycerol and 1 mM beta-mercaptoethanol. The above dilution and concentration operation was repeated three times to give purified eNOS.
Nitric oxide formation from NOS was monitored by the hemoglobin capture assay as described previously. (Hevel, J. M.; Marletta, M. A. Nitric Oxide Synthase Assays. Methods Enzymol. 1994, […], 250-258).
The selectivity of an inhibitor is defined as the ratio of the respective Ki values.

[1] = Table 1b, ratio of Ki values eNOS/nNOS
[2] = Table 1b, ratio of Ki values iNOS/nNOS
[3] = Table 1a, apparent Ki calculated from IC50, Km […], read-out: calc. Ki nNOS
[4] = Table 1a, apparent Ki calculated from IC50, Km […], read-out: calc. Ki iNOS
[5] = Table 1a, apparent Ki calculated from IC50, Km 1.7 μM, read-out: calc. Ki eNOS

Structure (SMILES) | Selectivity n/e (rat nNOS; [1]) | Selectivity n/i (rat nNOS; [2]) | Ki (rat nNOS; Table 1b, read-out: Ki nNOS) | Ki (murine iNOS; Table 1b, read-out: Ki iNOS) | Ki (bovine eNOS; Table 1b, read-out: Ki eNOS) | Selectivity n/e (rat nNOS; Table 1a, Ki(eNOS)/Ki(nNOS)) | Selectivity n/i (rat nNOS; Table 1a, Ki(iNOS)/Ki(nNOS)) | Ki (rat nNOS; [3]) | IC50 (rat nNOS; Table 1a) | Ki (murine iNOS; [4]) | IC50 (murine iNOS; Table 1a) | Ki (bovine eNOS; [5]) | IC50 (bovine eNOS; Table 1a)
Cc1cc(N)nc(CC2CNCC2NCC(C)NCc2ccc(Cl)cc2)c1.Cl.Cl.Cl.Cl (racemic) [Compound P-68] | 28 | 34.7 | 0.589 µM | 20.5 µM | 16.5 µM | – | – | – | – | – | – | – | –
Nc1cccc(CC2CNCC2NC2CCN(Cc3ccccc3)C2)n1 (stereo not drawn) [Compound P-37] | – | – | – | – | – | 2.42 | 3.05 | 75.2 µM | 654 µM | 229 µM | 506 µM | 182 µM | 1250 µM
Cc1cc(N)nc(CC2CNCC2NCCNCc2cccc(C(F)(F)F)c2)c1.Cl.Cl.Cl.Cl (racemic) [Compound P-58] | 146.1 | 79 | 0.74 µM | 58.7 µM | 109 µM | – | – | – | – | – | – | – | –
Nc1cccc(CC2CNCC2NC2CCN(Cc3ccccc3)C2)n1 (racemic) [Compound P-22] | – | – | – | – | – | 6.07 | 11.66 | 17.9 µM | 156 µM | 209 µM | 461 µM | 109 µM | 748 µM
Nc1cccc(C[C@H]2CNC[C@H]2NCCNCc2ccccc2)n1 (racemic) [Compound P-33] | – | – | – | – | – | >8619.5 | 136.36 | 1.18 µM | 10.2 µM | 161 µM | 355 µM | > 10200 µM | > 70000 µM
Cl.Cl.Cl.Nc1cccc(CC2CNCC2NCCCc2ccccc2)n1 (racemic) [Compound P-12] | – | – | – | – | – | 6.42 | 10.83 | 13.3 µM | 115 µM | 144 µM | 317 µM | 85.2 µM | 586 µM
Nc1cccc(CC2CNCC2NC2CCN(Cc3ccccc3)C2)n1 (racemic) [Compound P-21] | – | – | – | – | – | 6.99 | 11.70 | 24.4 µM | 212 µM | 286 µM | 630 µM | 171 µM | 1170 µM
CN(C)CCNC1CNCC1Cc1cccc(N)n1 (racemic) [Compound P-30] | – | – | – | – | – | 42.02 | 58.45 | 3.33 µM | 29 µM | 195 µM | 429 µM | 140 µM | 963 µM
Cc1cc(N)nc(C[C@H]2CNC[C@H]2NCCNCc2ccc(F)cc2)c1.Cl.Cl.Cl.Cl (racemic) [Compound P-51] | 904.5 | 55.4 | 0.144 µM | 7.97 µM | 130 µM | – | – | – | – | – | – | – | –
Cl.Cl.Cl.Cl.Nc1nc(CC2CNCC2NCCNCc2ccc(Cl)cc2)cs1 (racemic) [Compound P-82] | 1.8 | 2 | 1.7 µM | 3.4 µM | 3 µM | – | – | – | – | – | – | – | –
Nc1cccc(CC2CNCC2NCC(N)Cc2ccccc2)n1 (racemic) [Compound P-32] | – | – | – | – | – | >632 | 129.09 | 2.3 µM | 20 µM | 297 µM | 655 µM | > 1450 µM | > 10000 µM
Nc1cccc(CC2CNCC2NCC(N)Cc2ccccc2)n1 (racemic) [Compound P-16] | – | – | – | – | – | >104.83 | 21.54 | 13.9 µM | 120 µM | 299 µM | 658 µM | > 1450 µM | > 10000 µM
Cc1cc(N)nc(CC2CNCC2NCCNCc2ccc(Cl)c(Cl)c2)c1.Cl.Cl.Cl.Cl (racemic) [Compound P-60] | 260 | 22.6 | 0.157 µM | 3.56 µM | 40.8 µM | – | – | – | – | – | – | – | –
Cc1cc(N)nc(C[C@H]2CNC[C@H]2N(C)CCNCCc2cccc(F)c2)c1.Cl.Cl.Cl.Cl (racemic) [Compound P-75] | 283.5 | 117.3 | 0.326 µM | 38.2 µM | 92.4 µM | – | – | – | – | – | – | – | –
Cc1cc(N)nc(C[C@H]2CNC[C@@H]2NCCNCc2ccc(F)cc2)c1.Cl.Cl.Cl.Cl (racemic) [Compound P-57] | 90.1 | 31.3 | 0.87 µM | 27.4 µM | 78.8 µM | – | – | – | – | – | – | – | –
Cc1cc(N)nc(C[C@H]2CNC[C@@H]2NCCNCc2ccc(Cl)cc2Cl)c1.Cl.Cl.Cl.Cl (racemic) [Compound P-66] | 158 | 91.6 | 0.483 µM | 44.2 µM | 76.1 µM | – | – | – | – | – | – | – | –
Cc1cc(N)nc(CC2CNCC2NCCNCCc2ccc(F)cc2)c1.Cl.Cl.Cl.Cl (racemic) [Compound P-70] | 656.2 | 170.3 | 0.027 µM | 4.6 µM | 17.7 µM | – | – | – | – | – | – | – | –
Cc1cc(N)nc(C[C@H]2CNC[C@H]2NC[C@H](C)NCc2ccc(Cl)cc2)c1.Cl.Cl.Cl.Cl (racemic) [Compound P-63] | 294.4 | 90 | 0.136 µM | 12.2 µM | 40 µM | – | – | – | – | – | – | – | –
